Measurements published in patent publication US20150125546A1, “COMBINATION THERAPY FOR TREATING PULMONARY HYPERTENSION” (Gilead Sciences, Inc., priority 2013, published 2015).
Read-outs that look alike come from different tables or passages of the source. Ends that are not written are not given here.

How the values were obtained:
[1] = tested on: endothelin-1 (ET-1)-constricted intrapulmonary arteries isolated from rats; assay: relaxation of ET-1-induced contraction of isolated rat intrapulmonary arterial rings; details: for relaxation of ET-1-constricted intrapulmonary arteries: 8 nM ET-1; for effect on potency of the other drug to relax ET-1 constricted rat pulmonary arteries: qualitative (FIG. 6, FIG. 7)
[2] = tested on: cGMP synthesis in isolated intrapulmonary arteries; assay: cGMP content in isolated rat intrapulmonary arteries; details: for ET-1-stimulated cGMP synthesis in the presence of bosentan / ET-1 plus riociguat-stimulated cGMP synthesis in the presence of bosentan: 100 nM bosentan; for ET-1-stimulated cGMP synthesis in the presence of bosentan: 8 nM ET-1; for ET-1 plus riociguat-stimulated cGMP synthesis in the presence of bosentan: 8 nM ET-1 plus 30 nM riociguat
[3] = tested on: phosphorylation of MLC2 by MLCK; assay: ET-1-stimulated phosphorylation of MLC2 by MLCK in rat pulmonary arteries; details: qualitative (FIG. 10)
From the text: Further, ambrisentan and riociguat attenuated ET-1 stimulated phosphorylation of MLC2 by MLCK in rat pulmonary arteries (FIG. 10).

ETA receptor = target: T1, ETA receptor (Homo sapiens, UniProt P25101); details: background statement; read-out: affinity for the ETA receptor; cited from earlier work
T1 sequence (P25101 21-427): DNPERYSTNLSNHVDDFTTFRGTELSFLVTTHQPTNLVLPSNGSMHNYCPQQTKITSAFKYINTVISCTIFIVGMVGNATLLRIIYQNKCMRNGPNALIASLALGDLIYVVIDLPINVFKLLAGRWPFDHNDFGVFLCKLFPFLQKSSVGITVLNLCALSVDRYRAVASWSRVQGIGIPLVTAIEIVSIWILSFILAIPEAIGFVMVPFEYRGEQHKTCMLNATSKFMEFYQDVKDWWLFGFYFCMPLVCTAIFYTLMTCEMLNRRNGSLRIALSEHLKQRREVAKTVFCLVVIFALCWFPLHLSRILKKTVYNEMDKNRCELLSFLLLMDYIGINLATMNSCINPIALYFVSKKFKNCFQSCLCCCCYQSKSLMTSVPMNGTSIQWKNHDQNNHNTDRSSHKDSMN

[4] = 30 nM alone, another run (FIG. 3, FIG. 4)
[5] = 30 nM alone, first run (FIG. 2), mean±SEM

In the case of `COc1ccccc1Oc1c(NS(=O)(=O)c2ccc(C(C)(C)C)cc2)nc(-c2ncccn2)nc1OCCO` [bosentan], the “relaxation of ET-1-constricted intrapulmonary arteries” value (shortened to “relaxation”) ([1]; 100 nM alone, another run (FIG. 4)) is reported as 19.8%, the “relaxation” value ([1]; 100 nM alone, first run (FIG. 2), mean±SEM) is reported as 23±3% and the “ET-1-stimulated cGMP synthesis in the presence of bosentan” value ([2]; another run (FIG. 9)) is reported as 36 pmol/g tissue. For the same compound, the “ET-1-stimulated cGMP synthesis in the presence of bosentan” value ([2]; first run) was 21±3 pmol/g tissue, the “ET-1 plus riociguat-stimulated cGMP synthesis in the presence of bosentan” value ([2]; another run (FIG. 9)) was 97 pmol/g tissue and the “ET-1 plus riociguat-stimulated cGMP synthesis in the presence of bosentan” value ([2]; first run) was 37±3 pmol/g tissue. The “blocking of ET-1 and its combination with riociguat to stimulate cGMP synthesis” value (shortened to “blocking of ET-1 and its combination”) ([2]; qualitative) was “significantly blocked”.

In the case of `CCCNS(=O)(=O)Nc1ncnc(OCCOc2ncc(Br)cn2)c1-c1ccc(Br)cc1` [macitentan], the “relaxation” value [1, 4] is reported as 30.1% and the “relaxation” value [1, 5] is reported as 30±6%.

With “Endothelin-1 (CSCSSLMDKECVYFCHLDIIW; ends and bridges not checked; cysteine pairing not given here; UniProt P05305 53-73, looked up) [ET-1]” the “content of cGMP” value ([2]; 10 nM ET-1 alone) was 37±4 pmol/g tissue.

With `COC(=O)N(C)c1c(N)nc(-c2nn(Cc3ccccc3F)c3ncccc23)nc1N` [riociguat, methyl (4,6-diamino-2-(1-(2-fluorobenzyl)-1H-pyrazolo[3,4-b]pyridin-3-yl)pyrimidin-5-yl)(methyl)carbamate] the “relaxation” value [1, 4] was 23.2±6.5%, the “relaxation” value [1, 5] was 23±3% and the “effect on potency of the other drug to relax ET-1 constricted rat pulmonary arteries” value [1] was “increased the potency of ambrisentan”. For the same compound, the “effect on ET-1 stimulated phosphorylation of MLC2 by MLCK” value [3] was “attenuated”, the “content of cGMP” value ([2]; 10 nM ET-1 and 30 nM riociguat in combination) was 96±7 pmol/g tissue and the “content of cGMP” value ([2]; 30 nM riociguat alone) was 34±5 pmol/g tissue. The “effect on ET-1-stimulated cGMP production” value ([2]; qualitative (FIG. 8)) was “potentiated ET-1-stimulated cGMP production”.

In the case of `COC(c1ccccc1)(c1ccccc1)[C@H](Oc1nc(C)cc(C)n1)C(=O)O` [ambrisentan, (2S)-2-[(4,6-dimethylpyrimidin-2-yl)oxy]-3-methoxy-3,3-diphenylpropanoic acid], the “relaxation” value ([1]; 10 nM alone, another run (FIG. 3), mean±SEM) is reported as 28.5±6.4%, the “relaxation” value ([1]; 10 nM alone, first run (FIG. 2), mean±SEM) is reported as 29±6% and the “effect on potency of the other drug to relax ET-1 constricted rat pulmonary arteries” value [1] is reported as “increased the potency of riociguat”. The “effect on ET-1 stimulated phosphorylation of MLC2 by MLCK” value [3] was “attenuated”, the “blocking of ET-1 and its combination” value ([2]; qualitative) was “but not ambrisentan, significantly blocked” and the Ki (ETA receptor) was about 0.012 nM.

For `COC(=O)[C@@H](N)CCCN=C(N)N[N+](=O)[O-].Cl` [L-NAME], the “blocking of ET-1 and its combination” value [2] was “significantly blocked”.
